# Data from patent US20130237478A1, “COMPOSITIONS AND METHODS FOR TREATMENT OF PERIPHERAL VASCULAR DISEASE” (TARIX PHARMACEUTICALS LTD., priority 2012, published 2013).
# “Also recorded” adds a separate entry of the source. Positions of bridges follow the written chain, without caps; N, C: chain ends. No end group written: not given here.
# What was measured:
# [1] = Body weight of mice in hind limb ischemia studies; type: in vivo, Balb/c mice; details: throughout the study
# Description: Body weight of animals was measured before the surgery and once weekly thereafter.
# (§1) The model and procedures used for this example is the same as for those in Examples 1 and 2, unless otherwise specified.
# [2] = system: Transient middle cerebral artery occlusion (tMCAO); test: Stepping test (forelimb akinesia) after tMCAO stroke; type: in vivo, rats; details: all experimental conditions (Table 22); by Day 28 post-surgery
# Description: For the purposes of this example, Transient middle cerebral artery occlusion (tMCAO) procedure Day is defined as “Day 1” in this study. On the day of surgery anesthesia were induced with 4% isoflurane in a mixture of 70% N2O and 30% O2 and maintained with 1.5-2% isoflurane.
# The tMCAO procedures were performed according to the method described R. Schmid-Elsaesser et al. Briefly, the right CCA (Common Carotid Artery) was exposed through a midline neck incision and carefully dissected free from surrounding nerves and fascia—from its bifurcation to the base of the skull. The occipital artery branches of the ECA (External Carotid Artery) were then isolated, and these branches were dissected and coagulated. The ECA was dissected further distally and coagulated along with the terminal lingual and maxillary artery branches, which was then divided. The ICA (Internal Carotid Artery) was isolated and carefully separated from the adjacent vagus nerve, and the pterygopalatine artery was ligated close to its origin with a 5-0 nylon suture (SMI, Belgium). Next, a 4-0 silk suture was tied loosely around the mobilized ECA stump, and a 4 cm length of 4-0 monofilament nylon suture (the tip of the suture was blunted by using a flame, and the suture was coated with polylysine, prior to insertion) was inserted through the proximal ECA into the ICA and thence into the circle of Willis, effectively occluding the MCA. The surgical wound was closed and the animals were returned to their cages to recover from anesthesia. […]
# Animals were tested for forelimb akinesia in a stepping test (ST). The animal was held with its hind limbs fixed with one hand and the forelimb not to be monitored with the other, while the unrestrained fore-paw touches the table. The number of adjusting steps are counted while the animal is moved sideways along the table surface (85 cm in approximately five seconds), in the forehand & backhand direction for both forelimbs. […]
# hind limb ischemia = test: Blood flow by non contact laser Doppler in mouse hind limb ischemia model; type: in vivo, Balb/c mice
# Text: A stable hind limb ischemia model has been described previously and is generally characterized by uniform ischemic damage useful for examining the effect of various therapies (Goto, et al. Tokai J Exp Clin Med, 31(3):128 2006; Kang Y, et al. PLoS One. 2009; 4(1):e4275)). The hind limb ischemia model in mice used in this example involves two ligations of the proximal end of the femoral artery and its dissection between the two ligatures. The surgery causes obstruction of the blood flow and subsequently leads to severe ischemic damage (Goto, et al.; Kang, et al.). In this experiment, healthy adult female Balb/c mice were used. Hind limb ischemia was induced in mice using protocols previously described. Briefly, Balb/c female mice were maintained on a standard diet with water available ad libitum. Mice were anesthetized and an incision was made in the skin in the inguinal area. The femoral artery was ligated twice with 6-0 silk thread and transected between the ligatures after this the wound was closed with 4-0 silk thread and the mouse was allowed to recover. […]
# Blood flow in legs from both sides of the animals was measured with a non contact laser Doppler before surgery and on days: 1, 7, 15, 21, 28, 35, 42 and 49 post operation. Blood flow measurements were expressed as the ratio of the flow in the ischemic limb to that in the normal limb.
# The model used in this example is the same as for Example 1. Briefly, the hind limb ischemia model in mice used in this example involves two ligations of the proximal end of the femoral artery and its dissection between the two ligatures. The surgery causes obstruction of the blood flow and subsequently leads to severe ischemic damage (Goto, et al.; Kang, et al.). In this experiment, healthy adult female Balb/c mice were used. Hind limb ischemia was induced in mice using protocols previously described. Briefly, Balb/c female mice were maintained on a standard diet with water available ad libitum. Mice were anesthetized and an incision was made in the skin in the inguinal area. The femoral artery was ligated twice with 6-0 silk thread and transected between the ligatures after this the wound was closed with 4-0 silk thread and the mouse was allowed to recover.
# An Angiotensin (1-7) polypeptide composition (PanCyte) and vehicle control (DPBS) were supplied as ready to use solutions and were stored at 4° C. until use. PanCyte was injected subcutaneously (500 μg/kg or 50 μg/kg) daily starting on day 1, 24 hours after inducing ischemia, until the end of the study. Negative control mice were injected subcutaneously with a vehicle.
# as §1
# An Angiotensin (1-7) polypeptide composition (PanCyte, cyclized Asp^1-Arg^2-Val^3-Ser^4-Ile^5-His^6-Cys (SEQ ID NO:22)) and vehicle control (DPBS) were supplied as ready to use solutions and were stored at 4° C. until use. In groups 2F-5F, PanCyte was injected subcutaneously (1 μg/kg, 5 μg/kg, 25 μg/kg, 50 μg/kg) daily starting on day 1, 24 hours after inducing ischemia, until the end of the study. In group 6F, an osmotic Alzet pump was implanted subcutaneously and provided for continuous release of PanCyte over the duration of the study. Negative control mice were injected subcutaneously with vehicle (DPBS).
substance,measurement,setting,value
"cyclized Asp^1-Arg^2-Val^3-Ser^4-Ile^5-His^6-Cys (SEQ ID NO:22) (DRVSIHC; bridge 4-7; not fully specified; printed as Asp1-Arg2-Val3-Ser4-Ile5-His6-Cys7) [PanCyte, cyclic angiotensin peptide]",body weight vs vehicle,"[1]; Example 2, 500 or 50 μg/kg SC daily",no statistically significant differences
same,body weight vs vehicle,"[1]; Example 3, 1-50 μg/kg SC",no statistically significant differences
same,stepping test performance vs vehicle,[2],significantly improved the performance
same,blood flow restored,"hind limb ischemia; Example 2, 50 μg/kg SC",85 % of its normal values
same,improvement in blood flow vs vehicle,"hind limb ischemia; Example 2, 50 μg/kg SC daily (3F), from day 21 up to day 49, p<0.05-0.001",statistically significant improvement in blood flow
same,blood flow restored,"hind limb ischemia; Example 2, 500 μg/kg SC",85 % of its normal values
same,improvement in blood flow vs vehicle,"hind limb ischemia; Example 2, 500 μg/kg SC daily (2F), from day 21 up to day 49, p<0.05-0.001",statistically significant improvement in blood flow
same,improvement in blood flow vs vehicle,"hind limb ischemia; Example 3, 1 μg/kg SC daily (2F), days 42 and 49",blood flow improvement reached statistically significance
same,improvement in blood flow vs vehicle,"hind limb ischemia; Example 3, 5 μg/kg SC daily (3F), days 42 and 49",blood flow improvement reached statistically significance
same,improvement in blood flow vs vehicle,"hind limb ischemia; Example 3, 25 μg/kg SC daily (4F), days 42 and 49",blood flow improvement reached statistically significance
same,improvement in blood flow vs vehicle,"hind limb ischemia; Example 3, 50 μg/kg SC daily injections (5F), day 35 up to day 49",significant improvement in blood flow
same,improvement in blood flow vs vehicle,"hind limb ischemia; Example 3, 50 μg/kg continuous SC by Alzet pump (6F), day 14 up to day 49",Statistically significant improvement in blood flow; also recorded: particularly good and early blood perfusion restoration
same,blood flow restored,"hind limb ischemia; Example 3, SC 1-50 μg/kg, dose dependent manner",up to 84 % of its normal values
